Several values for one entry are separate records, joined by “and”; a condition that tells them apart may be missing. Identical values can stand only once. Like-named read-outs stand apart in the source and are kept apart here.
Tested on: Chinese adult subjects with FLT3-mutant R/R AML
Experiment: Phase II clinical study, safety

CC(C)n1c(Nc2cccnc2)nc2cnc(Nc3ccc(N4CCN(C)CC4)cc3)nc21 [Compound A]
Adverse events leading to death: 3 (23.1) n (%) | Adverse events of > Grade 3: 11 (84.6) n (%) | Important adverse reactions: 8 (61.5) n (%) | Non-hematologic adverse events of > Grade 3: 11 (84.6) n (%) | elevated blood lactate dehydrogenase (150 mg BID group): 1 subject | elevated aspartate amino transferase (150 mg BID group (1 subject)): 7.1% | adverse reactions classified as cardiac organ diseases (SOC) (150 mg BID group (2 subjects)): 14.3% | adverse reactions classified as hepatobiliary system disease (SOC) (150 mg BID group (2 subjects)): 14.3% | elevated hemobilirubin (150 mg BID group (2 subjects)): 14.3% | incidence of hematological adverse reactions of grade ≥4 (150 mg BID group (7 cases)): 50% | Adverse events (150 mg group (N = 14)): 14 (100.0) n (%) | Adverse events leading to death (150 mg group (N = 14)): 4 (28.6) n (%) | Adverse events leading to dose reduction (150 mg group (N = 14)): 3 (21.4) n (%) | Adverse events leading to withdrawal from the trial (150 mg group (N = 14)): 3 (21.4) n (%) | Adverse events of > Grade 3 (150 mg group (N = 14)): 13 (92.9) n (%) | Adverse reactions (150 mg group (N = 14)): 12 n (%) and 12 (85.7) n (%) | Adverse reactions leading to death (150 mg group (N = 14)): 1 (7.1) n (%) | Adverse reactions leading to dose reduction (150 mg group (N = 14)): 3 (21.4) n (%) | Adverse reactions leading to withdrawal from the trial (150 mg group (N = 14)): 0 (0) n (%) | Adverse reactions of > Grade 3 (150 mg group (N = 14)): 9 (64.3) n (%) | Important adverse events (150 mg group (N = 14)): 11 (78.6) n (%) | Important adverse reactions (150 mg group (N = 14)): 8 (57.1) n (%) | Non-hematologic adverse events of > Grade 3 (150 mg group (N = 14)): 10 (71.4) n (%) | Non-hematological adverse reactions of > Grade 3 (150 mg group (N = 14)): 4 (28.6) n (%) | Serious adverse events (150 mg group (N = 14)): 11 (78.6) n (%) | Serious adverse reactions (150 mg group (N = 14)): 5 (35.7) n (%) | adverse events of > Grade 4 (150 mg group (N = 14)): 8 (57.1) n (%) | adverse reactions of > Grade 4 (150 mg group (N = 14)): 7 (50.0) n (%) | adverse reactions classified as cardiac organ diseases (SOC) (200 mg BID group): 0 subjects | electrocardiogram high voltage (200 mg BID group): 1 subject | elevated hemobilirubin (200 mg BID group (1 subject)): 25% | incidence of hematological adverse reactions of grade ≥4 (200 mg BID group (2 cases)): 50% | Adverse events (200 mg group (N = 4)): 4 (100.0) n (%) | Adverse events leading to death (200 mg group (N = 4)): 1 (25.0) n (%) | Adverse events leading to dose reduction (200 mg group (N = 4)): 2 (50.0) n (%) | Adverse events leading to withdrawal from the trial (200 mg group (N = 4)): 1 (25.0) n (%) | Adverse events of > Grade 3 (200 mg group (N = 4)): 4 (100.0) n (%) | Adverse reactions (200 mg group (N = 4)): 4 n (%) and 4 (100.0) n (%) | Adverse reactions leading to death (200 mg group (N = 4)): 0 (0) n (%) | Adverse reactions leading to dose reduction (200 mg group (N = 4)): 2 (50.0) n (%) | Adverse reactions leading to withdrawal from the trial (200 mg group (N = 4)): 0 (0) n (%) | Adverse reactions of > Grade 3 (200 mg group (N = 4)): 3 (75.0) n (%) | Important adverse events (200 mg group (N = 4)): 4 (100.0) n (%) | Important adverse reactions (200 mg group (N = 4)): 3 (75.0) n (%) | Non-hematologic adverse events of > Grade 3 (200 mg group (N = 4)): 4 (100.0) n (%) | Non-hematological adverse reactions of > Grade 3 (200 mg group (N = 4)): 3 (75.0) n (%) | Serious adverse events (200 mg group (N = 4)): 3 (75.0) n (%) | Serious adverse reactions (200 mg group (N = 4)): 2 (50.0) n (%) | adverse events of > Grade 4 (200 mg group (N = 4)): 2 (50.0) n (%) | adverse reactions of > Grade 4 (200 mg group (N = 4)): 2 (50.0) n (%) | electrocardiogram high voltage (300 mg QD group): 1 subject | adverse reactions classified as cardiac organ diseases (SOC) (300 mg QD group (1 subject)): 7.7% | adverse reactions classified as hepatobiliary system disease (SOC) (300 mg QD group (2 subjects)): 15.4% | elevated gamma-glutamyltransferase (300 mg QD group (2 subjects)): 15.4% | elevated blood alkaline phosphatase (300 mg QD group (3 subjects)): 23.1% | elevated hemobilirubin (300 mg QD group (3 subjects)): 23.1% | incidence of hematological adverse reactions of grade ≥4 (300 mg QD group (9 cases)): 69.2% | Adverse events (300 mg group (N = 14)): 13 (100.0) n (%) | Adverse events leading to dose reduction (300 mg group (N = 14)): 2 (15.4) n (%) | Adverse events leading to withdrawal from the trial (300 mg group (N = 14)): 0 (0) n (%) | Adverse reactions (300 mg group (N = 14)): 12 n (%) and 12 (92.3) n (%) | Adverse reactions leading to death (300 mg group (N = 14)): 1 (7.7) n (%) | Adverse reactions leading to dose reduction (300 mg group (N = 14)): 1 (7.7) n (%) | Adverse reactions leading to withdrawal from the trial (300 mg group (N = 14)): 0 (0) n (%) | Adverse reactions of > Grade 3 (300 mg group (N = 14)): 9 (69.2) n (%) | Important adverse events (300 mg group (N = 14)): 11 (84.6) n (%) | Non-hematological adverse reactions of > Grade 3 (300 mg group (N = 14)): 7 (53.8) n (%) | Serious adverse events (300 mg group (N = 14)): 10 (76.9) n (%) | Serious adverse reactions (300 mg group (N = 14)): 6 (46.2) n (%) | adverse events of > Grade 4 (300 mg group (N = 14)): 9 (69.2) n (%) | adverse reactions of > Grade 4 (300 mg group (N = 14)): 9 (69.2) n (%) | serious hematological adverse reaction: anemia (31 subjects (1 case)): 3.2% | serious hematological adverse reaction: bone marrow failure (31 subjects (1 case)): 3.2% | serious hematological adverse reaction: hemolyticanemia (31 subjects (1 case)): 3.2% | serious hematological adverse reaction: leukocytopenia (31 subjects (1 case)): 3.2% | serious hematological adverse reaction: neutropenia (31 subjects (2 cases)): 6.5% | serious hematological adverse reaction: thrombocytopenia (31 subjects (3 cases)): 9.7% | adverse reactions of grade ≥3: infectious pneumonia (31 subjects (4 cases)): 12.9% | adverse reactions of grade ≥3: diarrhea (31 subjects (5 cases)): 16.1% | adverse reactions of grade ≥3: Lymphocytopenia (31 subjects (6 cases)): 19.4% | adverse reactions of grade ≥3: anemia (31 subjects (6 cases)): 19.4% | adverse reactions of grade ≥3: thrombocytopenia (31 subjects (8 cases)): 25.8% | adverse reactions of grade ≥3: neutropenia (31 subjects (11 cases)): 35.5% | adverse reactions of grade ≥3: leukocytopenia (31 subjects (16 cases)): 51.6% | Adverse events (Total (N = 31)): 31 n (%) and 31 (100.0) n (%) | Adverse events leading to death (Total (N = 31)): 8 (25.8) n (%) | Adverse events leading to dose reduction (Total (N = 31)): 7 (22.6) n (%) | Adverse events leading to withdrawal from the trial (Total (N = 31)): 4 (12.9) n (%) | Adverse events of > Grade 3 (Total (N = 31)): 28 (90.3) n (%) | Adverse reactions (Total (N = 31)): 28 (90.3%) n (%) and 28 (90.3) n (%) | Adverse reactions leading to death (Total (N = 31)): 2 (6.5) n (%) | Adverse reactions leading to dose reduction (Total (N = 31)): 6 (19.4) n (%) | Adverse reactions leading to withdrawal from the trial (Total (N = 31)): 0 (0) n (%) | Adverse reactions of > Grade 3 (Total (N = 31)): 21 (67.7) n (%) | Important adverse events (Total (N = 31)): 26 (83.9) n (%) | Important adverse reactions (Total (N = 31)): 19 (61.3) n (%) | Non-hematologic adverse events of > Grade 3 (Total (N = 31)): 25 (80.6) n (%) | Non-hematological adverse reactions of > Grade 3 (Total (N = 31)): 14 (45.2) n (%) | Serious adverse events (Total (N = 31)): 24 (77.4) n (%) | Serious adverse reactions (Total (N = 31)): 13 (41.9) n (%) | adverse events of > Grade 4 (Total (N = 31)): 19 (61.3) n (%) | adverse reactions of > Grade 4 (Total (N = 31)): 18 (58.1) n (%) | adverse reactions of QT interval prolongation (all groups): No adverse reactions of QT interval prolongation were observed | examination abnormality related to the heart (SOC) (all groups): 3 subjects | grade of heart-related adverse reactions (all groups): 1-2 Grades | grade of hepato toxicities (all groups): 1-2 Grades | liver-, kidney-, and heart-related adverse reactions of grade ≥3 (throughout the trial): no liver-, kidney-, and heart-related adverse reactions of grade ≥3 occurred | elevated aspartate amino transferase (total (1 subject)): 3.2% | elevated gamma-glutamyltransferase (total (2 subjects)): 6.5% | elevated blood alkaline phosphatase (total (3 subjects)): 9.7% | adverse reactions classified as hepatobiliary system disease (SOC) (total (4 subjects)): 12.9% | elevated hemobilirubin (total (6 subjects)): 19.4% | adverse reactions classified as cardiac organ diseases (SOC) (total, 31 subjects (3 subjects)): 9.7%
